# Patent US20090298934A1, “Diamidine Inhibitors of TDP1” (GOVERNMENT OF THE US, AS REPRESENTED BY THE SECRET, priority 2006, published 2009)
# Columns and labels:
# Tdp1 [1] = target: T1, Tdp1 (Homo sapiens, UniProt Q9NUW8); experiment: Tdp1 gel assay (32P-labeled 14Y / D14Y / 14Y-CC substrates, denaturing PAGE, densitometry); format: biochemical; details: for Ability to inhibit Tdp1 activity in the 14Y substrate (gel): 25 nM 14Y, 1 ng Tdp1, 20 min, pH 8.0, 25° C.; for Conversion half-time (t) of 14Y: 1.9 min in the absence of drug
# T1 construct: His tag with thrombin site and linker (printed […] = X1; made in house; host or cells: E. coli BL21 (Novagen), plasmid pHN1910 in vector pET 15b
# T1 sequence (Q9NUW8 whole entry): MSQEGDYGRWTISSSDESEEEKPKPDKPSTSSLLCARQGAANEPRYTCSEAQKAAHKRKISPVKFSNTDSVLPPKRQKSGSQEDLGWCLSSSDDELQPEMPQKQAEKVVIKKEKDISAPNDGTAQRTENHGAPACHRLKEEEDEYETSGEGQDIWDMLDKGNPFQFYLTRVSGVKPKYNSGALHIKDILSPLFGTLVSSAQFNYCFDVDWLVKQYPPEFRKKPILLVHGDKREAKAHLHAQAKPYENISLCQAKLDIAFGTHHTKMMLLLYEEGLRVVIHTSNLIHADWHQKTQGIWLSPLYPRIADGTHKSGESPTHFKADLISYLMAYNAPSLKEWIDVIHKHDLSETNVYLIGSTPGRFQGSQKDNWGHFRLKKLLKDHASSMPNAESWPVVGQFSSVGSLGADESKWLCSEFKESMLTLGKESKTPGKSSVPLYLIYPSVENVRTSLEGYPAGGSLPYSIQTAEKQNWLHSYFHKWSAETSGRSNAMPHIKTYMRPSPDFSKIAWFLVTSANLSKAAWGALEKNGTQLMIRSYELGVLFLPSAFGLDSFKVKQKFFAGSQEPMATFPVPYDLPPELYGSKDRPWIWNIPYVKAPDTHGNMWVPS
# Description: FIG. 7. […] A, Schematic representation of the Tdp1 biochemical assay. The partially duplex […] D14Y or single stranded 14Y was used as a substrate. ^32P-Radiolabeling (*) was at the 5′ terminus of the 14-mer strand. Tdp1 catalyzes the hydrolysis of the 3′-phosphotyrosine bond and converts 14Y and D14Y to an oligonucleotide with 3′-phosphate, 14P or D14P respectively. […] Arrows indicate the 3′-phosphate oligonucleotide product (14P) that runs quicker than the corresponding tyrosyl oligonucleotide substrate (14Y) in a denaturing PAGE. The duplex D14Y substrate and D14P product are detected on the gel by their corresponding labeled single strands (14Y and 14P), as they are no longer annealed under the denatured conditions.
# FIG. 9. […] Aliquots were taken at the indicated times (min). Reaction products were analyzed by denaturing PAGE. B, densitometry analysis of the gel shown in A. Tdp1 activity measured as the percentage of DNA substrate 14Y converted to 14P (Left panel) or substrate 14Y remaining (Right panel) as a function of reaction time. […] A representative gel is shown. D, densitometry analysis of the gel shown in C. Tdp1 activity was calculated as the percentage of DNA substrate 14Y converted to 14P.
# FIG. 10. […] A, Sequences of the oligonucletotide substrates 14Y and 14Y-CC, which differ in their 3′-terminal bases being a -TT or a -CC that is linked to the phosphotyrosine. B, Reactions (100 μl) containing either 25 nM 14Y or 14Y-CC and 5 ng of Tdp1 was incubated at pH 8.0 at 25° C. Aliquots were taken at the indicated times (min). Reaction products were analyzed by denaturing PAGE. C, densitometry analysis of the gel shown in B. Tdp1 activity measured as the percentage of DNA substrates 14Y or 14Y-CC converted to their corresponding products as a function of reaction time. […] A representative gel is shown. E, densitometry analysis of the gel shown in D. Tdp1 activity was calculated as the percentage of DNA substrates 14Y or 14Y-CC converted to their product.
# FIG. 11. […] R; common chemical moiety. […] Samples were separated on a 20% Urea-PAGE gel and visualized.
# Preparation of Tdp1 substrates: HPLC purified oligonucleotides N14Y (Plo et al., (2003) DNA Repair (Amst) 2(10):1087-1100) were labeled at their 5′-end with [γ-^32P]-ATP (Perkin-Elmer Life Science Co., Boston, Mass.) by incubation with 3′-phosphatase free T4 polynucleotide kinase (Roche applied Science, Indianapolis, Ind.) according to the manufacturer's protocols. Unincorporated nucleotides were removed by Sephadex G-25 spin-column chromatography (Mini Quick Spin Oligo Columns, Roche, Indianapolis, Ind.). For the production of the oligonucleotide duplexes D14Y, N14Y was mixed with the complementary oligonucleotide in equal molar ratios in annealing buffer (10 mM Tris-HCl pH 7.5, 100 mM NaCl, 10 mM MgCl2), heated to 96° C., and allowed to cool down slowly (over 2 h) to room temperature. Tdp1 assays: Unless indicated otherwise, Tdp1 assays are performed in 20 μl mixtures containing 50 mM Tris-HCl, pH 8.0, 80 mM KCl, 2 mM EDTA, 1 mM dithiothreitol (D)T, and 40 μg/ml bovine serum albumin (BSA). For initial screening of Tdp1 inhibitors, 25 nM of 5′-^32P-labeled substrate (D14Y) is reacted with 1 ng Tdp1 (≈0.7 nM) in the absence or presence of inhibitor for 20 min at 25° C. Reactions are stopped by addition of 60 μl of gel loading buffer (98% (v/v) formamide, 1% (w/v) xylene cyanol, 1% (w/v) bromophenol blue). Twelve μl of aliquots are resolved in 20% denaturing polyacrylamide (AccuGel, National Diagnostics, Atlanta, Ga.) (19:1) gel containing 7 M urea. After drying, gels are exposed overnight to PhosphorImager screens (Molecular Dynamics, Sunnyvale, Calif.). Screens are scanned, and images are obtained with the Molecular Dynamics software (Sunnyvale, Calif.). Densitometry analyses are performed using ImageQuant 5.2 software package (Amersham Biosciences, Piscataway, N.J.).
# Tdp1 [2] = target: T1, Tdp1; experiment: High-throughput electrochemiluminescent (ECL) Tdp1 assay; format: biochemical
# Description: High-throughput electrochemiluminescene assay developed to identify novel Tdp1 inhibitors. […] This leads to a loss of the chemiluminescence signal. Positive hits for potential Tdp1 inhibitors prevent this loss of signal. C, Signal response curve in the presence of increasing concentrations (nM) of Tdp1.
# A, Graph representing the effect of 1981 compounds in the NCI-DTP diversity set on Tdp1 activity at 10 pM. Each dot indicates a signal value for a tested sample. The substrate chemiluminescence (Arbitrary units; A.U.) in the absence of Tdp1 averages at 16313±1084 (n=200; where “n” indicates the number of samples). In the presence of Tdp1 the loss of signal averages at 8784±559 (n=100). The effect of 1981 compounds screened is represented. Positive Tdp1 inhibitors prevent the loss of signal. […] Vanadate at 10 mM was used for comparison.
SMILES,Ability to inhibit Tdp1 activity in the 14Y substrate (gel) (Tdp1 [1]),"IC50 (Tdp1 [1]; IC50 ds14Y, double-stranded 14Y substrate)","IC50 (Tdp1 [1]; IC50 ss14Y, single-stranded 14Y substrate)","ECL signal value (substrate chemiluminescence) (Tdp1 [2]; 10 μM compound, without Tdp1 16313±1084, with Tdp1 8784±559)",inhibition at 10 µM (Tdp1 [2]; at 10 μM),"inhibition at 30 µM (Tdp1 [1]; 30 μM compound, 0.1 ng of Tdp1, 14Y)","Inhibition of Tdp1 activity after increasing Tdp1 (Tdp1 [1]; 30 μM compound, Tdp1 increased to 1 ng, 14Y)",Conversion half-time (t) of 14Y (Tdp1 [1]; 30 μM compound),Conversion half-time (t) of 14Y (Tdp1 [1]; 60 μM compound),Type of Tdp1 inhibition (Tdp1 [1]; dependence on reaction time and Tdp1 concentration)
"CC(=O)NCC(=O)O.CC(=O)NCC(=O)O.N=C(N)c1ccc(N=NNc2ccc(C(=N)N)cc2)cc1 [Berenil, reference compound]","some activity, albeit at a high concentration (300 μM)",–,–,–,–,–,–,–,–,–
CN(C)C1C(O)=C(C(=O)NCN2CCN(C(=N)NC(=N)N)CC2)C(=O)C2(O)C(O)=C3C(=O)c4c(O)cccc4C(C)(O)C3CC12 (centres unmarked) [Compound (a)],–,19 µM,12 µM,–,–,–,–,–,–,–
"N=C(N)c1ccc(-c2ccc(-c3ccc(C(=N)N)cc3)o2)cc1 [Compound (b), 2,5-di-(4-phenylamidine)furan]",exhibits an inhibition of Tdp1 activity at 30 μM,–,–,16910 A.U.,100%,50%,almost completely reversed,2.7 min,4.4 min,reversible inhibition
